In patent US10668090B2, “Liver specific delivery-based antiviral prodrug nucleoside cyclophosphate compound and uses thereof” (ZHEJIANG PALO ALTO PHARMACEUTICALS, INC, priority 2016, dated 2020):
Where a name gives a salt, the structure may show the parent alone. Read-outs that look alike come from different tables or passages of the source.

Assays:
[1] = Formation of active molecules by in vitro metabolism with human liver microsomes; type: in vitro ADME; conditions: 25 μM, pH 7.4
Method: Human liver microsomes used herein were purchased from In Vitro Technologies (IVT) Inc., Batch No.: SSP X008070, a mixed liver microsome extracted from the liver tissues of 150 donors. The metabolic activity of CYP3A4 in the liver microsomes of this batch was recorded in the product description to be 1.734 nmol/mg/min (a rate of metabolizing testosterone into […]). The test compounds were synthesized by Zhejiang Paloalto Pharmaceutical Technology Co., Ltd., and dissolved in methanol to produce a 25 mM stock solution. The enzymatic reaction was carried out in 100 μL of a reaction solution (100 mM Tris-HCl, 5 mM MgCl2, pH 7.4) at a test compound concentration of 25 μM and a human liver microsome concentration of 2 mg/mL, and NADPH was added to start the reaction (with a final concentration of 2 mM). After the reaction was performed in a constant temperature shaking water bath for 5 minutes, acetonitrile was quickly added to terminate the reaction at 1.5 times the volume of the reaction mixture. The collected samples were centrifuged at a maximum speed of 13,600 rpm for 20 minutes using an Eppendorf table top centrifuge. The supernatant was collected and dried with a nitrogen evaporator, and then redissolved with mobile phase A, which was an aqueous solution containing 5 mM of ammonium acetate and 0.05% formic acid by volume. The resulting solution was subjected to quantitative analysis using LS-MS/MS (Waters, Acquity UPLC HSS T3 column).

[2] = Method: Male SD rats weighing 180-300 g were provided by Shanghai Sippr-BK Laboratory Animals Co., Ltd. Male animals were adapted to the environment for more than 3 days and fasted for 12 hours but without water deprivation at the night before the experiment. PA1010 (compound 4-cis), PA1007 (compound 6-cis), TAF and TDF were respectively dissolved in a normal saline to prepare their corresponding solutions. Before the administration, the animal's body weight was checked whether it met the experimental requirements. 12 rats were selected for grouping, 2 rats in each group, and were intragastrically administered with a drug solution at 30 mg/kg. Rats were euthanized with carbon dioxide gas at 0.5, 1, 3, 6, 12 and 24 h, respectively. Blood samples were collected from the heart and stored in a heparin anticoagulation tube. Then the samples were centrifuged at 4° C. and 6,000 rpm for 5 minutes, and the plasma supernatant was stored in ice. The kidney and liver tissues of the rats were collected and rinsed with normal saline pre-cooled at 4° C., and then stored in ice after water was drained. After the experiment, the samples were stored at −80° C. in a refrigerator.
The kidney and liver tissues were disrupted and mixed thoroughly in normal saline 5 times the volume of the kidney and liver tissues to obtain a tissue homogenate sample. 100 μL of the rat plasma or tissue homogenate sample was mixed uniformly with 100 μL of 10% trichloroacetic acid precipitant containing 50 ng/mL of adefovir (internal standard) and the solvent thereof was prepared by methanol and acetonitrile in a volume ratio of 50:50. The mixture was centrifuged at 4° C. and 6000 rpm for 5 minutes, and all supernatant was treated with a SPE microextraction plate (MCX μElution Plate 30 μm, Waters). Finally, the microextraction plate was eluted with a methanol solution containing 5% ammonia, and 75 μL of the obtained eluent was transferred to a 384-well sample plate for analysis with an injection volume of 1 μL.
LC-MS/MS-AJ (Triple Quad 5500, AB SCIEX) was used for sample analysis. The chromatographic conditions were shown as follows: chromatographic column: Acquity UPLC HSS T3 (2.1×50 mm, 1.8 μm); column temperature: 40° C.; flow rate: 0.5 mL/min; mobile phase A: 0.1% formic acid aqueous solution and mobile phase B: an acetonitrile solution. The mass spectrometry conditions corresponding to the internal standard were shown as follows: electrospray ionization (ESI): positive ion mode; ion pair m/z monitored by multiple reaction monitoring (MRM): 288/176 (PMPA), 274/162 (PMEA); capillary voltage: 3.0 kV; temperature: 500° C.; desolvation gas flow: 1000 L/h; scanning time: 0.025 seconds; and collision energy: 25 V.
Bar charts of the concentration of PMPA in plasma, liver and kidney corresponding to time were respectively plotted. The area (AUC0-t) under the tissue concentration-time curve of PMPA was fitted using the log-linear trapezoidal method in a non-compartmental model of WinNonLin 6.2.1 (Pharsight, CA). The ratios of liver to kidney and liver to plasma of PMPA were obtained by calculating the ratio of their corresponding AUC0-t.

[3] = male, SD, rat, in vivo, po, 30 mg/kg
[4] = rats, intragastric 30 mg/kg, 0.5-24 h, kidney
[5] = rats, intragastric 30 mg/kg, 0.5-24 h
[6] = rats, intragastric 30 mg/kg, 0.5-24 h, plasma

| SMILES | Average rate of PMPA production in 5 minutes [1] [pmol/min/mg HLM] | Exposure (AUC0-t) of the active molecule PMPA in kidney [2, 4] [ng·h/g] | Exposure (AUC0-t) of the active molecule PMPA in liver [2, 5] [ng·h/g] | Exposure (AUC0-t) of the active molecule PMPA in plasma [2, 6] [ng·h/g] | other results |
| --- | --- | --- | --- | --- | --- |
| C[C@H](Cn1cnc2c(N)ncnc21)OCP1(=O)OCC[C@@H](c2cccc(Cl)c2)O1 (mixture of isomers) [Compound 7, (2R)-9-{2-[(4S)-4-(3-chlorophenyl)-2-oxo-1,3,2-dioxaphosphorinan-2-yl]methoxypropyl}adenine, reference compound] | 27.5 |  |  |  |  |
| C[C@H](Cn1cnc2c(N)ncnc21)OCP1(=O)OCC[C@@H](c2cccc(Cl)c2F)O1 (mixture of isomers) [Compound 1, (2R)-9-{2-[(4S)-4-(3-chloro-2-fluorophenyl)-2-oxo-1,3,2-dioxaphosphorinan-2-yl]methoxypropyl}adenine] | 33.8 |  |  |  |  |
| C[C@H](Cn1cnc2c(N)ncnc21)OC[P@@]1(=O)OCC[C@@H](c2cc(Cl)ccc2F)O1 [Compound 4-cis, (2R)-9-{2-[(2R, 4S)-4-(5-chloro-2-fluorophenyl)-2-oxo-1,3,2-dioxaphosphorinan-2-yl]methoxypropyl}adenine] |  |  |  |  | exposure level of PMPA in the liver, times that released from TAF ([2]; male, SD, rat, in vivo): 1.5 times; exposure level of PMPA in the liver, times that released from TDF ([2]; male, SD, rat, in vivo): 2.9 times; Liver-kidney Ratio of PMPA AUC0-t [2, 3]: 1.0; Liver-plasma Ratio of PMPA AUC0-t [2, 3]: 51.4; PMPA level in liver tissues compared with TAF and TDF at the corresponding time points ([2]; rat, in vivo): significantly higher; exposure level of PMPA in the kidney compared with TAF and TDF ([2]; rat, in vivo): significantly lower; Exposure (AUC0-t) of the active molecule PMPA in kidney ([2]; rat, in vivo, po, 30 mg/kg): 234298 ng·h/g; Exposure (AUC0-t) of the active molecule PMPA in plasma ([2]; rat, in vivo, po, 30 mg/kg): 4332 ng·h/g |
| CC(C)OC(=O)[C@H](C)N[P@](=O)(CO[C@H](C)Cn1cnc2c(N)ncnc21)Oc1ccccc1 [TAF, tenofovir alafenamide, reference compound] |  | 297233 | 148407 | 4892 |  |
| CC(C)OC(=O)OCOP(=O)(CO[C@H](C)Cn1cnc2c(N)ncnc21)OCOC(=O)OC(C)C [TDF, tenofovir disoproxil fumarate, reference compound] |  | 319562 | 78050 | 3097 |  |
| C[C@H](Cn1cnc2c(N)ncnc21)OCP1(=O)OCC[C@@H](c2cc(F)cc(Cl)c2)O1 (mixture of isomers) [Compound 2, (2R)-9-{2-[(4S)-4-(3-chloro-5-fluorophenyl)-2-oxo-1,3,2-dioxaphosphorinan-2-yl]methoxypropyl}adenine] | 46.8 |  |  |  |  |
| C[C@H](Cn1cnc2c(N)ncnc21)OC[P@@]1(=O)OCC[C@@H](c2cc(F)cc(Cl)c2)O1 [Compound 6-cis, (2R)-9-{2-[(2R, 4S)-4-(3-chloro-5-fluorophenyl)-2-oxo-1,3,2-dioxaphosphorinan-2-yl]methoxypropyl}adenine] | 75.8 | 65393 | 76075 | 1272 | exposure level of PMPA in the kidney compared with TAF and TDF ([2]; rats, intragastric 30 mg/kg): significantly lower |
| C[C@H](Cn1cnc2c(N)ncnc21)OCP1(=O)OCC[C@@H](c2ccc(F)c(Cl)c2)O1 (mixture of isomers) [Compound 3, (2R)-9-{2-[(4S)-4-(3-chloro-4-fluorophenyl)-2-oxo-1,3,2-dioxaphosphorinan-2-yl]methoxypropyl}adenine] | 22.2 |  |  |  |  |
